Test results as given in PubChem BioAssay AID743390 (Vanderbilt Specialized Chemistry Center, 2014).

Target: Phospholipase D1 (Homo sapiens) (UniProt Q13393)
Experiment: purified PLD1 inhibitor potency, IC50, confirmation, biochemical, concentration response (AID 743390)
Conditions: purified human PLD1 enzyme activity assay

Phospholipase D1 (Homo sapiens), sequence (Q13393 whole entry, looked up): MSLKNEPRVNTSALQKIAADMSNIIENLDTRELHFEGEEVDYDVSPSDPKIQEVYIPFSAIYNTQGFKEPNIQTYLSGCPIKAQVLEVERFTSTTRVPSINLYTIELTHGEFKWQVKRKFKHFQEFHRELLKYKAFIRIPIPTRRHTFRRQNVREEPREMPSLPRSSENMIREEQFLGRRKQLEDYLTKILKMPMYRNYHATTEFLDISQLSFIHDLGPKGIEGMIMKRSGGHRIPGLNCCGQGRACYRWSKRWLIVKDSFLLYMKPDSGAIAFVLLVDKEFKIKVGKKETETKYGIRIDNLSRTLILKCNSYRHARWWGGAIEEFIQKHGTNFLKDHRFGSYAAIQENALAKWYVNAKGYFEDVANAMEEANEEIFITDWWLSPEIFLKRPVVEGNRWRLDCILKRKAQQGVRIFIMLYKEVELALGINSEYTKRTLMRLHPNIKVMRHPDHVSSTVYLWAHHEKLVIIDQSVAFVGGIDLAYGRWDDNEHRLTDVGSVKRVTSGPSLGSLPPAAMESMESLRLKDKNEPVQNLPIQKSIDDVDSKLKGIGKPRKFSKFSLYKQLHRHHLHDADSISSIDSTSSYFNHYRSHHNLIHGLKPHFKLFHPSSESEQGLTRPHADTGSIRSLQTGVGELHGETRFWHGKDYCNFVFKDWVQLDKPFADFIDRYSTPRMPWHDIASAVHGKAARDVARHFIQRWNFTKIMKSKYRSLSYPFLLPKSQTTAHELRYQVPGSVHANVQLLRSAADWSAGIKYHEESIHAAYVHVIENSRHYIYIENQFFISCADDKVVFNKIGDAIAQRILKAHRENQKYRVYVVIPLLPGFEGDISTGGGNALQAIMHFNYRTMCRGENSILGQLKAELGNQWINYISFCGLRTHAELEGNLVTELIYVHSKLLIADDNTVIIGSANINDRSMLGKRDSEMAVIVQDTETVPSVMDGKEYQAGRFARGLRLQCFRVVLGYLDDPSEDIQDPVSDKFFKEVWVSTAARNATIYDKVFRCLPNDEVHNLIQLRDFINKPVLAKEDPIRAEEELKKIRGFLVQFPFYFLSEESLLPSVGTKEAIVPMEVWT

Row | Structure (SMILES) | IC50 [µM]
1 | O=C(NCCN1CCC2(CC1)C(=O)NCN2Cc1cccnc1)c1ccc2ccccc2c1 | 20
2 | O=C(NCCN1CCC2(CC1)C(=O)NCN2Cc1cccnc1)c1cc2ccccc2o1 | 20
